Measured values from patent publication US6723858B2, “Estrogenic compounds as anti-mitotic agents” (The Children's Medical Center Corporation, priority 1993, dated 2004).

Experiments:
[1] = tested on: tubulin; experiment: inhibition of tubulin polymerization in vitro (turbidity at 350 nm); assay type: biochemical; details: for IC50: read-out: IC50 (concentration required to inhibit tubulin polymerization by 50%), method of Example 1, average ± S.D., obtained graphically
Description: Anti-mitotic activity can be evaluated by testing the ability of an estradiol derivative to inhibit tubulin polymerization and microtubule assembly in vitro. Microtubule assembly is followed in a Gilford recording spectrophotometer (model 250 or […]) equipped with electronic temperature controllers. […] The 0.24 ml reaction mixtures are incubated for 15 min. at 37° C. and then chilled on ice. After addition of 10 μl 2.5 mM GTP, the reaction mixture is transferred to a cuvette at 0° C., and a baseline established. At time zero, the temperature controller of the spectrophotometer is set at 37° C. Microtubule assembly is evaluated by increased turbity at 350 nm. […] The 0.24 ml reaction mixtures were incubated for 15 min at 37° C. and chilled on ice. After addition of 10 μl of 2.5 mM GTP the reaction mixtures were transferred to cuvettes held at 0° C., and baselines were established. At time zero the temperature controller was set at 37° C. At the times indicated by the vertical dashed lines the temperature controller was set at the indicated temperatures. […] The 0.24 ml reaction mixtures were incubated for 15 min at 26° C. and chilled on ice. After addition of 10 μl of 10 mM GTP the reaction mixtures were transferred to cuvettes held at 0° C., and baselines were established. At time zero the temperature controller was set at 26° C. At the time indicated by vertical dashed line the temperature controller was set at 0° C.

[2] = tested on: tubulin; experiment: inhibition of [3H]colchicine binding to tubulin; details: 1.0 μM tubulin, 5% DMSO, 10 min at 37° C.; for Percent inhibition ± S.D. of colchicine binding to tubulin: 100 μM inhibitor, 2 μM [3H]colchicine
Description: Incubation was for 10 min at 37° C.
Incubation was for 10 min at 37° C. […] S.D., standard deviation.

[3] = tested on: chick embryo chorioallantoic membrane new blood vessel cells (angiogenesis); experiment: chick embryo chorioallantoic membrane (CAM) assay; assay type: in vivo; details: 100 mg disk (methylcellulose disc) on CAM, after 48 hours
Description: Anti-mitotic activity is evaluated in situ by testing the ability of an improved estradiol derivative to inhibit the proliferation of new blood vessel cells (angiogenesis). A suitable assay is the chick embryo chorioallantoic membrane (CAM) assay described by Crum et al. Science 230:1375 (1985). See also, U.S. Pat. No. 5,001,116, hereby incorporated by reference, which describes the CAM assay. Briefly, fertilized chick embryos are removed from their shell on day 3 or 4, and a methylcellulose disc containing the drug is implanted on the chorioallantoic membrane. The embryos are examined 48 hours later and, if a clear avascular zone appears around the methylcellulose disc, the diameter of that zone is measured.

Row | SMILES | IC50 [1] | other results
1 | C[C@]12CC[C@@H]3c4cc(Br)c(O)cc4CC[C@H]3[C@@H]1CC[C@@H]2O [2-Bromoestradiol] | 4.5 ± 0.6 µM | 
2 | C[C@]12CC[C@@H]3c4cc(F)c(O)cc4CC[C@H]3[C@@H]1CC[C@@H]2O [2-Fluoroestradiol] | 27 ± 6 µM | 
3 | C#C[C@]1(O)CC[C@H]2[C@@H]3CCc4cc(O)c(OC)cc4[C@H]3CC[C@@]21C [2-Methoxy-17-ethynylestradiol] | > 40 µM | 
4 | COc1cc2c(cc1OC)C1CCC3(C)C(O)CCC3C1CC2 (stereo not shown) [2-Methoxyestradiol-3-O-methyl ether] | > 40 µM | 
5 | COc1cc2c(cc1O)CCC1C2CCC2(C)C(O)CCC12 (stereo not shown) [2-Methoxyestradiol] | 1.9 ± 0.2 µM | inhibition of tubulin polymerization (FIG. 1) ([1]; 20-75 μM at 37° C. (A) or 1.0-4.0 μM at 26° C. (B)): inhibition of tubulin polymerization; inhibition of colchicine binding to tubulin (FIG. 2) ([2]; 5 μM [3H]colchicine): inhibits colchicine binding to tubulin; Percent inhibition ± S.D. of colchicine binding to tubulin [2]: 82 ± 2%; inhibition of cell mitosis and growth of new blood vessels [3]: inhibit cell mitosis and the growth of new blood vessels
6 | COc1cc2c(cc1O)CC[C@@H]1[C@@H]2CC[C@]2(C)[C@@H](O)[C@H](O)C[C@@H]12 [2-Methoxyestriol] | > 40 µM | 
7 | COc1cc2c(cc1O)CC[C@@H]1[C@@H]2CC[C@]2(C)C(=O)CC[C@@H]12 [2-Methoxyestrone] | 8.8 ± 1 µM | Percent inhibition ± S.D. of colchicine binding to tubulin [2]: 57 ± 6%
8 | COc1ccc2c(c1OC)CCC1C2CCC2(C)C(O)CCC12 (stereo not shown) [4-Methoxyestradiol-3-O-methyl ether] | > 40 µM | 
9 | COc1c(O)ccc2c1CCC1C2CCC2(C)C(O)CCC12 (stereo not shown) [4-Methoxyestradiol] | > 40 µM | 
10 | C#C[C@]1(O)CC[C@H]2[C@@H]3CCc4cc(O)ccc4[C@H]3CC[C@@]21C [17-Ethynylestradiol, reference compound] | 10 ± 2 µM | Percent inhibition ± S.D. of colchicine binding to tubulin [2]: 50 ± 7%
11 | COc1ccc(CCc2cc(OC)c(OC)c(OC)c2)cc1O [Dihydrocombretastatin A-4, reference compound] | 0.63 ± 0.03 µM | 
12 | COc1ccc2c(c1)CC[C@@H]1[C@@H]2CC[C@]2(C)[C@@H](O)CC[C@@H]12 [Estradiol-3-O-methyl ether] | > 40 µM | 
13 | C[C@]12CC[C@@H]3c4ccc(O)cc4CC[C@H]3[C@@H]1C[C@@H](O)[C@@H]2O [Estriol, reference compound] | > 40 µM | 
